Measurements taken from the CheMixHub viscosity set.

Test: xn = mol fraction of the nth substance listed

ClC(Cl)(Cl)Cl + CC(C)(C)O
viscosity [mPa·s], 101 kPa
Conditions	298.15 K	308.15 K	318.15 K
x2 = 0.0318	0.886	0.768	0.674
x2 = 0.044	0.888	0.77	0.674
x2 = 0.086	0.91	0.78	0.678
x2 = 0.1644	0.958	0.801	0.693
x2 = 0.2487	1.007	0.853	0.712
x2 = 0.3632	1.086	0.897	0.751
x2 = 0.4833	1.221	0.987	0.806
x2 = 0.6052	1.43	1.118	0.892
x2 = 0.7156	1.74	1.303	1.007
x2 = 0.8301	2.392	1.67	1.222
x2 = 0.9132	3.045	1.98	1.381

CCCC(C)=O + CC(C)=O
viscosity [mPa·s], 101 kPa
Conditions	x1 = 0.2	x1 = 0.4	x1 = 0.6	x1 = 0.8
293.15 K	0.355	0.391	0.429	0.467
313.15 K	0.294	0.322	0.349	0.377

ClC(Cl)(Cl)Cl + CC(C)=O
viscosity [mPa·s], 101 kPa
Conditions	x1 = 0.0993	x1 = 0.2003	x1 = 0.2968	x1 = 0.4207	x1 = 0.5193	x1 = 0.61	x1 = 0.7052	x1 = 0.8049	x1 = 0.9143
293.15 K	0.3621	0.4068	0.4555	0.5227	0.5813	0.6398	0.7073	0.7845	0.8843
298.15 K	0.3447	0.3859	0.4311	0.4933	0.5473	0.6015	0.6632	0.7338	0.8251
303.15 K	0.3284	0.3665	0.409	0.466	0.5196	0.5667	0.6234	0.6889	0.7757
313.15 K	0.3001	0.3321	0.3699	0.4185	0.4649	0.506	0.5538	0.6106	0.6817

ClC(Cl)(Cl)Cl + CC(C)CO
viscosity [mPa·s], 101 kPa
Conditions	x2 = 0.0126	x2 = 0.0461	x2 = 0.0853	x2 = 0.2088	x2 = 0.2911	x2 = 0.411	x2 = 0.5341	x2 = 0.7116	x2 = 0.8407
298.15 K	0.888	0.896	0.914	0.995	1.079	1.251	1.521	2.076	2.631
308.15 K	0.774	0.774	0.791	0.845	0.909	1.023	1.206	1.581	1.942
318.15 K	0.679	0.679	0.695	0.726	0.77	0.851	0.978	1.235	1.482

CC(C)[O-].CC(C)[O-].CC(C)[O-].CC(C)[O-].[Ti+4] + CC(C)O
viscosity [mPa·s], 101.3 kPa
Conditions	x1 = 0.0502	x1 = 0.1236	x1 = 0.2408	x1 = 0.4582	x1 = 0.6555
293.15 K	2.274	2.136	2.072	2.134	2.287
303.15 K	1.659	1.526	1.458	1.535	1.498
313.15 K	1.274	1.185	1.133	1.167	1.123
323.15 K	0.9981	0.9549	0.9172	0.9361	0.9108

ClC(Cl)(Cl)Cl + CC(C)O
313.15 K, 101.33 kPa
Conditions	viscosity [mPa·s]
x2 = 0.115	0.7291
x2 = 0.22	0.7336
x2 = 0.325	0.7548
x2 = 0.421	0.7812
x2 = 0.5	0.8175
x2 = 0.602	0.8746
x2 = 0.685	0.9355
x2 = 0.745	0.9868
x2 = 0.879	1.145

CCCCCCCCCCCCCC(=O)O + CC(C)[C@@H]1CC[C@@H](C)C[C@H]1O
100 kPa, x1 = 0.2
Conditions	viscosity [mPa·s]
298.15 K	33.99
303.15 K	24.78
308.15 K	18.54
313.15 K	14.21
318.15 K	11.11
323.15 K	8.85

CCCC(C)=O + CCC(C)=O
viscosity [mPa·s], 101 kPa
Conditions	x2 = 0.2	x2 = 0.4	x2 = 0.6	x2 = 0.8
293.15 K	0.483	0.461	0.439	0.418
313.15 K	0.388	0.372	0.357	0.341

ClC(Cl)(Cl)Cl + CCC(C)=O
Conditions	viscosity [mPa·s]
298 K, 101.3 kPa, x1 = 0.1477	0.485
298 K, 101.3 kPa, x1 = 0.2858	0.543
298 K, 101.3 kPa, x1 = 0.4787	0.648
298 K, 101.3 kPa, x1 = 0.629	0.697
298 K, 101.3 kPa, x1 = 0.8296	0.792
298.15 K, 101.33 kPa, x2 = 0.1954	0.736
298.15 K, 101.33 kPa, x2 = 0.397	0.623
298.15 K, 101.33 kPa, x2 = 0.405	0.62
298.15 K, 101.33 kPa, x2 = 0.499	0.576
298.15 K, 101.33 kPa, x2 = 0.509	0.576
298.15 K, 101.33 kPa, x2 = 0.745	0.483
298.15 K, 101.33 kPa, x2 = 0.752	0.472
318 K, 101.3 kPa, x1 = 0.1385	0.3877
318 K, 101.3 kPa, x1 = 0.2858	0.4379
318 K, 101.3 kPa, x1 = 0.4821	0.5052
318 K, 101.3 kPa, x1 = 0.6311	0.5625
318 K, 101.3 kPa, x1 = 0.8418	0.6572

CCN(CC)CC + CCC(C)O
303.15 K, 101 kPa
Conditions	viscosity [mPa·s]
x1 = 0.01087	2.436
x1 = 0.02221	2.406
x1 = 0.0326	2.38
x1 = 0.04176	2.357
x1 = 0.05247	2.33
x1 = 0.06249	2.302
x1 = 0.07262	2.276
x1 = 0.08419	2.246
x1 = 0.09512	2.217

ClC(Cl)(Cl)Cl + CCC(C)O
viscosity [mPa·s], 101 kPa
Conditions	298.15 K	308.15 K	318.15 K
x2 = 0.0864	0.89	0.779	0.679
x2 = 0.1674	0.934	0.807	0.686
x2 = 0.2076	0.91	0.801	0.695
x2 = 0.2585	0.94	0.819	0.701
x2 = 0.3003	0.954	0.825	0.713
x2 = 0.3969	1.053	0.862	0.731
x2 = 0.5009	1.163	0.938	0.783
x2 = 0.5957	1.335	1.039	0.86
x2 = 0.6933	1.545	1.183	0.942
x2 = 0.7903	1.863	1.378	1.087
x2 = 0.9054	2.429	1.746	1.287

ClC(Cl)(Cl)Cl + CCCC(=O)OCC
101.33 kPa
Conditions	viscosity [mPa·s]
303.15 K, x1 = 0.061	0.606
303.15 K, x1 = 0.1443	0.621
303.15 K, x1 = 0.2812	0.648
303.15 K, x1 = 0.3929	0.672
303.15 K, x1 = 0.5226	0.699
303.15 K, x1 = 0.5625	0.708
303.15 K, x1 = 0.6324	0.726
303.15 K, x1 = 0.7331	0.748
303.15 K, x1 = 0.8278	0.778
303.15 K, x1 = 0.8866	0.798
303.15 K, x1 = 0.9455	0.819
313.15 K, x1 = 0.2056	0.586
313.15 K, x1 = 0.4083	0.615
313.15 K, x1 = 0.5058	0.631
313.15 K, x1 = 0.6059	0.647
313.15 K, x1 = 0.799	0.69

CCN(CC)CC + CCCCCC
viscosity [mPa·s], 101.33 kPa
Conditions	x1 = 0.1076	x1 = 0.2064	x1 = 0.4089	x1 = 0.5106	x1 = 0.6081	x1 = 0.804	x1 = 0.9018
303.15 K	0.2744	0.276	0.2838	0.2911	0.3002	0.3248	0.3408
313.15 K	0.2432	0.2489	0.2626	0.271	0.2799	0.3004	0.3125

ClC(Cl)(Cl)Cl + CCCCCC
298.15 K, 101 kPa
Conditions	viscosity [mPa·s]
x1 = 0.1	0.3171
x1 = 0.1729	0.3422
x1 = 0.2	0.3432
x1 = 0.3	0.3743
x1 = 0.3869	0.4102
x1 = 0.4	0.4105
x1 = 0.5	0.4532
x1 = 0.5869	0.5067
x1 = 0.6	0.5052
x1 = 0.7	0.5705
x1 = 0.7906	0.6461
x1 = 0.8	0.6544
x1 = 0.9	0.7635

CCN(CC)CC + CCCCCCC
303.15 K, 101 kPa
Conditions	viscosity [mPa·s]
x1 = 0.00966	0.3735
x1 = 0.01875	0.3719
x1 = 0.02995	0.3707
x1 = 0.0422	0.3687
x1 = 0.04845	0.3675
x1 = 0.05931	0.3663
x1 = 0.07022	0.365
x1 = 0.07742	0.3639
x1 = 0.08877	0.363
x1 = 0.09882	0.3622

CCN(CC)CC + CCCCCCCC
viscosity [mPa·s], 101.33 kPa
Conditions	x1 = 0.1983	x1 = 0.4032	x1 = 0.5055	x1 = 0.6044	x1 = 0.7987	x1 = 0.9028
303.15 K	0.4507	0.4233	0.411	0.3999	0.3795	0.3694
313.15 K	0.3913	0.3701	0.3605	0.3523	0.3379	0.331

CCCOC(C)=O + CCCCCCCCCC
298.15 K, 101.33 kPa
Conditions	viscosity [mPa·s]
x2 = 0.0879	0.565
x2 = 0.1221	0.571
x2 = 0.1602	0.578
x2 = 0.2376	0.591
x2 = 0.3166	0.606
x2 = 0.3821	0.62
x2 = 0.4847	0.644
x2 = 0.6012	0.678
x2 = 0.715	0.718
x2 = 0.8476	0.776
x2 = 0.9258	0.817

ClC(Cl)(Cl)Cl + CCCCCCCCCCO
298.15 K, 101 kPa
Conditions	viscosity [mPa·s]
x2 = 0.05	1.031
x2 = 0.097	1.224
x2 = 0.15	1.441
x2 = 0.2	1.775
x2 = 0.39	3.091
x2 = 0.49	4.012
x2 = 0.59	5.08
x2 = 0.8	7.86

CCCC[N+](CCCC)(CCCC)CCCC.[I-] + CCCCCCCCCO
101.3 kPa, x1 = 0.0476
Conditions	viscosity [mPa·s]
293.15 K	16.29
298.15 K	13.16
303.15 K	10.92
308.15 K	9.085
313.15 K	7.675
318.15 K	6.439
323.15 K	5.529

ClC(Cl)(Cl)Cl + CCCCCCCCO
viscosity [mPa·s], 101 kPa
Conditions	298.15 K	308.15 K	318.15 K
x2 = 0.023	0.92	0.796	0.696
x2 = 0.06	1	–	–
x2 = 0.1038	1.1	0.937	0.805
x2 = 0.12	1.139	–	–
x2 = 0.17	1.297	–	–
x2 = 0.2244	1.468	1.221	1.029
x2 = 0.23	1.47	–	–
x2 = 0.3266	1.867	1.527	1.255
x2 = 0.44	2.483	–	–
x2 = 0.54	3.124	–	–
x2 = 0.5645	3.223	2.495	1.946
x2 = 0.64	3.847	–	–
x2 = 0.7021	4.311	3.197	2.447
x2 = 0.83	5.58	–	–
x2 = 0.8568	5.746	4.172	3.118
